# Laboratory results: ChEMBL document CHEMBL1158659, “The alkaloids of Delphinium cashmirianum” (J Nat Prod, 1979)
# The source made the active and inactive calls. The rule behind the calls is not given here.
# Columns and labels:
# Oryctolagus cuniculus [1] = assay: Cardiovascular activity in Albino rabbit assessed as change in heart rate tested at basal heart rate of 170 beats/min at 0.10 mg/kg, iv by physiograph 4; assay type: functional; settings: dose 0.1 mg/kg
# Oryctolagus cuniculus [2] = assay: Cardiovascular activity in Albino rabbit assessed as change in heart rate tested at basal heart rate of 170 beats/min at 0.25 mg/kg, iv by physiograph 4; assay type: functional
# Oryctolagus cuniculus [3] = assay: Cardiovascular activity in Albino rabbit assessed as change in heart rate tested at basal heart rate of 170 beats/min at 0.50 mg/kg, iv by physiograph 4; assay type: functional; settings: dose 0.5 mg/kg
# Oryctolagus cuniculus [4] = assay: Cardiovascular activity in Albino rabbit assessed as change in heart rate tested at basal heart rate of 170 beats/min at 1.0 mg/kg, iv by physiograph 4; assay type: functional
# Oryctolagus cuniculus [5] = assay: Cardiovascular activity in Albino rabbit assessed as change in heart rate tested at basal heart rate of 180 beats/min at 1.0 mg/kg, iv by physiograph 4; assay type: functional
# Oryctolagus cuniculus [6] = assay: Cardiotoxicity in iv dosed Albino rabbit assessed as time to produce arrhythmias tested at basal heart rate of 170 beats/min; assay type: toxicity, organism-based; settings: in vivo
# Oryctolagus cuniculus [7] = assay: Cardiotoxicity in iv dosed Albino rabbit assessed as drug level to produce arrhythmias tested at basal heart rate of 170 beats/min; assay type: toxicity, organism-based; settings: in vivo
# Oryctolagus cuniculus [8] = assay: Cardiotoxicity in iv dosed Albino rabbit assessed as drug level to produce arrhythmias tested at basal heart rate of 180 beats/min; assay type: toxicity, organism-based; settings: in vivo
# Oryctolagus cuniculus [9] = assay: Cardiotoxicity in iv dosed Albino rabbit assessed as time to produce arrhythmias tested at basal heart rate of 180 beats/min; assay type: toxicity, organism-based; settings: in vivo
# Cavia porcellus [10] = species on record: Cavia porcellus; assay: Cardiovascular activity in albino guinea pig atria assessed as increase in heart rate by physiograph 4; assay type: functional, tissue-based; settings: Cardiac atrium
# [11] = Arrhythmogenic activity in albino guinea pig atria at 100 uM; assay type: tissue-based, Cavia porcellus, Cardiac atrium
# [12] = Arrhythmogenic activity in albino guinea pig atria after repeated atrial washing; assay type: tissue-based, Cavia porcellus, Cardiac atrium
# Oryctolagus cuniculus [13] = assay: Cardiovascular activity in Albino rabbit assessed as change in heart rate tested at basal heart rate of 190 beats/min at 0.10 mg/kg, iv by physiograph 4; assay type: functional; settings: dose 0.1 mg/kg
# Oryctolagus cuniculus [14] = assay: Cardiovascular activity in Albino rabbit assessed as change in heart rate tested at basal heart rate of 190 beats/min at 0.25 mg/kg, iv by physiograph 4; assay type: functional
# Oryctolagus cuniculus [15] = assay: Cardiovascular activity in Albino rabbit assessed as change in heart rate tested at basal heart rate of 190 beats/min at 0.50 mg/kg, iv by physiograph 4; assay type: functional; settings: dose 0.5 mg/kg
# Oryctolagus cuniculus [16] = assay: Cardiovascular activity in Albino rabbit assessed as change in heart rate tested at basal heart rate of 190 beats/min at 1.0 mg/kg, iv by physiograph 4; assay type: functional
# Oryctolagus cuniculus [17] = assay: Cardiotoxicity in iv dosed Albino rabbit assessed as drug level to produce arrhythmias tested at basal heart rate of 190 beats/min; assay type: toxicity, organism-based; settings: in vivo
# Oryctolagus cuniculus [18] = assay: Cardiotoxicity in iv dosed Albino rabbit assessed as time to produce arrhythmias tested at basal heart rate of 190 beats/min; assay type: toxicity, organism-based; settings: in vivo
# [19] = Arrhythmogenic activity in albino guinea pig atria at 10 uM after repeated atrial washing; assay type: tissue-based, Cavia porcellus, Cardiac atrium
# Cavia porcellus [20] = species on record: Cavia porcellus; assay: Cardiovascular activity in albino guinea pig atria assessed as increase in heart rate at 100 uM by physiograph 4; assay type: functional, tissue-based; settings: Cardiac atrium
# [21] = Arrhythmogenic activity in albino guinea pig atria at 30 uM; assay type: tissue-based, Cavia porcellus, Cardiac atrium
# Oryctolagus cuniculus [22] = assay: Cardiovascular activity in Albino rabbit assessed as sinusoidal heart rate tested at basal heart rate of 150 beats/min at 0.005 mg/kg, iv by physiograph 4; assay type: functional
# Oryctolagus cuniculus [23] = assay: Cardiovascular activity in Albino rabbit assessed as sinusoidal heart rate tested at basal heart rate of 150 beats/min at 0.010 mg/kg, iv by physiograph 4; assay type: functional; settings: dose 0.01 mg/kg
# Oryctolagus cuniculus [24] = assay: Cardiotoxicity in iv dosed Albino rabbit assessed as drug level to produce arrhythmias tested at basal heart rate of 150 beats/min upto 30 mins; assay type: toxicity, organism-based; settings: in vivo, 0.5 h
# Oryctolagus cuniculus [25] = assay: Cardiotoxicity in iv dosed Albino rabbit assessed as drug level to produce arrhythmias tested at basal heart rate of 150 beats/min; assay type: toxicity, organism-based; settings: in vivo
# Oryctolagus cuniculus [26] = assay: Cardiotoxicity in iv dosed Albino rabbit assessed as time to produce arrhythmias tested at basal heart rate of 150 beats/min; assay type: toxicity, organism-based; settings: in vivo
# Oryctolagus cuniculus [27] = assay: Cardiovascular activity in Albino rabbit assessed as change in heart rate tested at basal heart rate of 180 beats/min at 0.25 mg/kg, iv by physiograph 4; assay type: functional
# Oryctolagus cuniculus [28] = assay: Cardiovascular activity in Albino rabbit assessed as change in heart rate tested at basal heart rate of 180 beats/min at 0.50 mg/kg, iv by physiograph 4; assay type: functional; settings: dose 0.5 mg/kg
# Oryctolagus cuniculus [29] = assay: Cardiovascular activity in Albino rabbit assessed as change in heart rate tested at basal heart rate of 180 beats/min at 5.0 mg/kg, iv by physiograph 4; assay type: functional
# Oryctolagus cuniculus [30] = assay: Cardiovascular activity in Albino rabbit assessed as sinusoidal heart rate tested at basal heart rate of 180 beats/min at 0.05 mg/kg, iv by physiograph 4; assay type: functional
# Oryctolagus cuniculus [31] = assay: Cardiovascular activity in Albino rabbit assessed as change in heart rate tested at basal heart rate of 180 beats/min at 0.10 mg/kg, iv by physiograph 4; assay type: functional; settings: dose 0.1 mg/kg
smiles,measurement,setting,value
CCN1C[C@]2(OC(=O)c3ccccc3N)CC[C@H](OC)[C@@]34[C@@H]2C[C@H]([C@@H]13)[C@@]1(O)C[C@H](OC)[C@H]2C[C@@H]4[C@]1(O)[C@H]2OC,Activity,Oryctolagus cuniculus [1],8 bpm
same,Activity,Oryctolagus cuniculus [2],5 bpm
same,Activity,Oryctolagus cuniculus [3],0 bpm
same,Activity,Oryctolagus cuniculus [4],0 bpm
same,Activity,Oryctolagus cuniculus [5],0 bpm
same,Activity,Oryctolagus cuniculus [6],52 s
same,Activity,Oryctolagus cuniculus [7],1 mg/kg
same,Activity,Oryctolagus cuniculus [8],1 mg/kg
same,Activity,Oryctolagus cuniculus [9],85 s
CCN1C[C@]2(OC(=O)c3ccccc3NC(C)=O)CC[C@H](OC)[C@@]34[C@@H]2C[C@@H]([C@@H]13)[C@@]1(O)C[C@H](OC)[C@H]2C[C@@H]4[C@]1(O)[C@H]2OC,Activity,Cavia porcellus [10],inactive
same,Activity,[11],Toxic
same,Activity,[12],Non-toxic
same,Activity,Oryctolagus cuniculus [13],0 bpm
same,Activity,Oryctolagus cuniculus [14],-5 bpm
same,Activity,Oryctolagus cuniculus [15],-30 bpm
same,Activity,Oryctolagus cuniculus [16],-35 bpm
same,Activity,Oryctolagus cuniculus [17],1 mg/kg
same,Activity,Oryctolagus cuniculus [18],45 s
same,Activity,[19],Toxic
same,Activity,Cavia porcellus [20],inactive
CCN1C[C@]2(COC)[C@H](O)C[C@H](OC)[C@@]34[C@@H]5C[C@@]6(O)[C@H](OC(=O)c7ccccc7)[C@@H]5[C@@](OC(C)=O)([C@@H]([C@H](OC)[C@H]23)[C@@H]14)[C@@H](O)[C@@H]6OC [ACONITINE],Activity,Cavia porcellus [10],Dose-dependent effect
same,Activity,[21],Toxic
same,Activity,Oryctolagus cuniculus [17],0.1 mg/kg
same,Activity,Oryctolagus cuniculus [18],12 s
same,Activity,Oryctolagus cuniculus [22],110 bpm
same,Activity,Oryctolagus cuniculus [23],170 bpm
same,Activity,Oryctolagus cuniculus [24],0.005 mg/kg
same,Activity,Oryctolagus cuniculus [25],0.01 mg/kg
same,Activity,Oryctolagus cuniculus [26],30 s
CCN1C[C@]2(COC(=O)c3ccccc3N)CC[C@H](OC)[C@]34C1[C@](O)([C@@H](OC)[C@H]23)[C@@]1(O)C[C@H](OC)[C@H]2C[C@@H]4[C@@H]1[C@H]2OC [ANTHRANOYLLYCOCTONINE],Activity,Oryctolagus cuniculus [2],8 bpm
same,Activity,Oryctolagus cuniculus [3],5 bpm
same,Activity,Oryctolagus cuniculus [4],-5 bpm
CCN1C[C@]2(COC(=O)c3ccccc3NC(=O)CCC(N)=O)CC[C@H](OC)[C@@]34[C@@H]5C[C@H]6[C@H](OC)[C@@H]5[C@](O)(C[C@@H]6OC)[C@](O)([C@@H](OC)[C@H]23)[C@@H]14 [AVADHARIDINE],Activity,Oryctolagus cuniculus [27],5 bpm
same,Activity,Oryctolagus cuniculus [28],0 bpm
same,Activity,Oryctolagus cuniculus [5],0 bpm
same,Activity,Oryctolagus cuniculus [29],-10 bpm
same,Activity,Oryctolagus cuniculus [30],0 bpm
same,Activity,Oryctolagus cuniculus [31],8 bpm
